Earlier results on four compounds are cited in patent US20070224292A1, “Extended effect ergogenic drink” (priority 2006, published 2007).

The conditions of data set [1]: after two hours; males (but not females).
The conditions of data set [2]: during exercise in normal subjects.
The conditions of data set [3]: first fifteen minutes of exercise.
For data set [4] the following is noted: visual monitoring test simulating night driving.
For data set [5] the following is noted: animals; given at the same time as vitamin C.
The conditions of data set [6]: three women; 1 mg chromium with 100 mg vitamin C versus 1 mg chromium without vitamin C.
The conditions of data set [7]: 200 to 400 mcg chromium three times per day, polynicotinate or picolinate form.
The conditions of data set [8]: for time to reach peak serum concentrations: following ingestion.
For data set [9] the following is noted: immediate-release nicotinic acid.
For data set [10] the following is noted: in vivo.

Like-named read-outs stand apart in the source and are kept apart here.

As for `Cn1c(=O)c2c(ncn2C)n(C)c1=O` [Caffeine], in data set [1], the “CNS stimulation compared to placebo” value is “lower CNS (Central Nervous System) stimulation”. The “time to reach peak levels in the bloodstream” value (absorbed through stomach and small intestine) was 15 to 45 min. The “half-life, women taking oral contraceptives” value (women taking oral contraceptives) is reported as “up to 12 hours”. Besides, the “circulating free fatty acids and glycerol” value in data set [2] is “increase circulating free fatty acids and glycerol”. Moreover, the “reduction of the loss of glycogen” value in [3] is reported as “fifty”. The “effect on attention lapses” value in [4] is “prevent attention lapses”.

`[Cr]` [Chromium]: the chromium uptake result in data set [5] is listed as “enhanced”. For the same compound, the “plasma levels of chromium” value in data set [6] is listed as “higher plasma levels of chromium”. The “effect on insulin sensitivity” value in data set [7] is on record as “improve insulin sensitivity”.

Turning to `O=C(O)c1cccnc1` [Niacin, Nicotinic acid], the “time to reach peak serum concentrations” value in data set [8] (extended-release form) was 4 to 5 h. Besides, the half-life result in data set [8] (immediate release Niacin) was “approximately 1 hour”. Moreover, the “time to reach peak serum concentrations” value in data set [8] (immediate-release or crystalline form) is given as “approximately 45 minutes”. Besides, in data set [9], the duration of flushing result was “up to one” and the “time to onset of flushing following ingestion” value is at most 20 min.

Regarding Chromium Polynicotinate, in data set [10], the “effect on blood lipid levels” value was “lower blood lipid levels”.
